Laboratory results published in article PMC9866191, “Novel 9-Benzylaminoacridine Derivatives as Dual Inhibitors of Phosphodiesterase 5 and Topoisomerase II for the Treatment of Colon Cancer” (Molecules, 2023).

Key:
[1] = test system: CCRF-CEM; assay: NCI-60 one-dose screen; type: cell-based; details: Homo sapiens, Leukemia panel, single dose 10^−5 M, read-out: Growth inhibition %
[2] = test system: 786-0; assay: NCI-60 one-dose screen; type: cell-based; details: Homo sapiens; 786-0, Renal Cancer panel; single dose 10^−5 M; read-out: Growth inhibition %
[3] = test system: CAKI-1; assay: NCI-60 one-dose screen; type: cell-based; details: Homo sapiens; CAKI-1, Renal Cancer panel; single dose 10^−5 M; read-out: Growth inhibition %
[4] = test system: DU-145; assay: NCI-60 one-dose screen; type: cell-based; details: Homo sapiens; DU-145, Prostate Cancer panel; single dose 10^−5 M; read-out: Growth inhibition %
[5] = test system: HCT-15; assay: NCI-60 one-dose screen; type: cell-based; details: Homo sapiens; HCT-15, Colon Cancer panel; single dose 10^−5 M; read-out: Growth inhibition %
[6] = test system: HL-60(TB); assay: NCI-60 one-dose screen; type: cell-based; details: Homo sapiens, Leukemia panel, single dose 10^−5 M, read-out: Growth inhibition %
[7] = test system: HS 578T; assay: NCI-60 one-dose screen; type: cell-based; details: Homo sapiens, Breast Cancer panel, single dose 10^−5 M, read-out: Growth inhibition %
[8] = test system: HT29; assay: NCI-60 one-dose screen; type: cell-based; details: Homo sapiens, HT-29; HT29, Colon Cancer panel; single dose 10^−5 M; read-out: Growth inhibition %
[9] = test system: KM12; assay: NCI-60 one-dose screen; type: cell-based; details: Homo sapiens; KM12, Colon Cancer panel; single dose 10^−5 M; read-out: Growth inhibition %
[10] = test system: MCF7; assay: NCI-60 one-dose screen; type: cell-based; details: Homo sapiens; MCF7, Breast Cancer panel; single dose 10^−5 M; read-out: Growth inhibition %
[11] = test system: MDA-MB-435; assay: NCI-60 one-dose screen; type: cell-based; details: Homo sapiens; MDA-MB-435, Melanoma panel; single dose 10^−5 M; read-out: Growth inhibition %
[12] = test system: MDA-MB-468; assay: NCI-60 one-dose screen; type: cell-based; details: Homo sapiens; MDA-MB-468, Breast Cancer panel; single dose 10^−5 M; read-out: Growth inhibition %
[13] = test system: NCI-H322M; assay: NCI-60 one-dose screen; type: cell-based; details: Homo sapiens, Non-small cell lung panel, single dose 10^−5 M, read-out: Growth inhibition %
[14] = test system: NCI/ADR-RES; assay: NCI-60 one-dose screen; type: cell-based; details: Homo sapiens, Ovarian Cancer panel, single dose 10^−5 M, read-out: Growth inhibition %
[15] = test system: OVCAR-3; assay: NCI-60 one-dose screen; type: cell-based; details: Homo sapiens; OVCAR-3, Ovarian Cancer panel; single dose 10^−5 M; read-out: Growth inhibition %
[16] = test system: OVCAR-5; assay: NCI-60 one-dose screen; type: cell-based; details: Homo sapiens; OVCAR-5, Ovarian Cancer panel; single dose 10^−5 M; read-out: Growth inhibition %
[17] = test system: PC-3; assay: NCI-60 one-dose screen; type: cell-based; details: Homo sapiens; PC-3, Prostate Cancer panel; single dose 10^−5 M; read-out: Growth inhibition %
[18] = test system: RPMI-8226; assay: NCI-60 one-dose screen; type: cell-based; details: Homo sapiens; RPMI-8226, Leukemia panel; single dose 10^−5 M; read-out: Growth inhibition %
[19] = test system: SF-295; assay: NCI-60 one-dose screen; type: cell-based; details: Homo sapiens; SF-295, CNS Cancer panel; single dose 10^−5 M; read-out: Growth inhibition %
[20] = test system: SK-MEL-28; assay: NCI-60 one-dose screen; type: cell-based; details: Homo sapiens; SK-MEL-28, Melanoma panel; single dose 10^−5 M; read-out: Growth inhibition %
[21] = test system: SK-MEL-2; assay: NCI-60 one-dose screen; type: cell-based; details: Homo sapiens; SK-MEL-2, Melanoma panel; single dose 10^−5 M; read-out: Growth inhibition %
[22] = test system: SNB-19; assay: NCI-60 one-dose screen; type: cell-based; details: Homo sapiens; SNB-19, CNS Cancer panel; single dose 10^−5 M; read-out: Growth inhibition %
[23] = test system: SR; assay: NCI-60 one-dose screen; type: cell-based; details: Homo sapiens, Leukemia panel, single dose 10^−5 M, read-out: Growth inhibition %
[24] = test system: T-47D; assay: NCI-60 one-dose screen; type: cell-based; details: Homo sapiens, T47D, Breast Cancer panel, single dose 10^−5 M, read-out: Growth inhibition %
[25] = test system: TK-10; assay: NCI-60 one-dose screen; type: cell-based; details: Homo sapiens; TK-10, Renal Cancer panel; single dose 10^−5 M; read-out: Growth inhibition %
[26] = test system: UACC-62; assay: NCI-60 one-dose screen; type: cell-based; details: Homo sapiens; UACC-62, Melanoma panel; single dose 10^−5 M; read-out: Growth inhibition %
[27] = test system: SF-268; assay: NCI-60 one-dose screen; type: cell-based; details: Homo sapiens; SF-268, CNS Cancer panel; single dose 10^−5 M; read-out: Growth inhibition %
[28] = test system: LOX IMVI; assay: NCI-60 one-dose screen; type: cell-based; details: Homo sapiens, Melanoma panel, single dose 10^−5 M, read-out: Growth inhibition %
[29] = test system: IGROV1; assay: NCI-60 one-dose screen; type: cell-based; details: Homo sapiens, IGROV-1; IGROV1, Ovarian Cancer panel; single dose 10^−5 M; read-out: Growth inhibition %
[30] = test system: HCT-116; assay: MTT cell proliferation assay, HCT-116; details: for % Inhibition at 10 µM: 72 h MTT, means ± SD
[31] = test system: CCD-966SK; assay: MTT cell proliferation assay, CCD-966SK; details: CCD966SK skin fibroblast; 10 µM; 72 h MTT

Row | Structure (SMILES) | inhibition at 10 µM [1] | inhibition at 10 µM [2] | inhibition at 10 µM [3] | inhibition at 10 µM [4] | inhibition at 10 µM [5] | inhibition at 10 µM [6] | inhibition at 10 µM [7] | inhibition at 10 µM [8] | inhibition at 10 µM [9] | inhibition at 10 µM [10] | inhibition at 10 µM [11] | inhibition at 10 µM [12] | inhibition at 10 µM [13] | inhibition at 10 µM [14] | inhibition at 10 µM [15] | inhibition at 10 µM [16] | inhibition at 10 µM [17] | inhibition at 10 µM [18] | inhibition at 10 µM [19] | inhibition at 10 µM [20] | also measured
1 | Clc1cccc(CNc2c3ccccc3nc3ccccc23)c1 [Compound 12, Acridin-9-yl-(3-chlorobenzyl)-amine] | 81.9% | 74.8% | 71.8% | 68.3% | 86% | 91% | 46.3% | 91.4% | 59.2% | 99.1% | 53.4% | 118% | 68.7% | 73.7% | 42.3% | 67.6% | 76.5% | 124% | 79.2% | 33.8% | inhibition at 10 µM [21]: 22.7%; inhibition at 10 µM [22]: 73.6%; inhibition at 10 µM [23]: 104%; inhibition at 10 µM [24]: 59.1%; inhibition at 10 µM [25]: 47.9%; inhibition at 10 µM [26]: 47.5%; inhibition at 10 µM [27]: 39.4%; inhibition at 10 µM [28]: 98.2%; inhibition at 10 µM [29]: 83.5%; % Inhibition at 10 µM [30]: 63.40 ± 7.54%; IC50 ([30]; read-out: IC50 μM, 72 h MTT, means ± SD, three experiments): 4.84 ± 0.05 µM; % Inhibition at 10 µM [31]: 45.43 ± 0.42%
2 | COc1ccc2nc3ccccc3c(NCc3ccc(C)cc3)c2c1 [Compound 26, (2-Methoxyacridin-9-yl)-(4-methylbenzyl)-amine] | 92.9% | 84.2% | 73.8% | 78.4% | 88.6% | 100% | 57.3% | 98.8% | 62.7% | 96.6% | 57.8% | 119% | 69.7% | 76.2% | 53.1% | 66% | 88.6% | 146% | 76.4% | 33.6% | inhibition at 10 µM [21]: 30%; inhibition at 10 µM [22]: 70.8%; inhibition at 10 µM [23]: 113%; inhibition at 10 µM [24]: 69.4%; inhibition at 10 µM [25]: 53%; inhibition at 10 µM [26]: 44.3%; inhibition at 10 µM [27]: 51.6%; inhibition at 10 µM [28]: 106%; inhibition at 10 µM [29]: 82.8%; % Inhibition at 10 µM [30]: 38.11 ± 1.35%; % Inhibition at 10 µM [31]: 46.76 ± 3.21%
